The structures appear in SMILES notation.

One assay concerns amyloid-beta (1-42) peptide. As to the kind of experiment: ELISA assay of amyloid-beta (1-42) in conditioned media of 2B7 cells. In kind it is cell-based. The note with it: 5 h, Aβ-42, 2B7 cells, 5 hours; read-out: IC50 range. As to the method:
Compounds of the present invention, and extracts comprising said compounds, may be assayed as inhibitors of amyloid-beta (1-42) peptide in vitro or in vivo. Such assay methods are described in detail in U.S. Pat. No. 6,649,196, the entirety of which is hereby incorporated herein by reference.
In certain embodiments, provided compounds of the present invention, and extracts comprising said compounds, were assayed as inhibitors of amyloid-beta (1-42) peptide in vitro using an ELISA assay.
Capture Plate Prep: • 6E10 was diluted to 5.0 ug/mL in 100 mM NaHCO3 pH 8.2 (10 ug aliquot per 2 mL buffer); • 100 uL capture antibody solution was added to wells of 96 well plate; • Incubated overnight at 4° C. sealed; • Aspirated off capture antibody; and • Blocked with 250 uL of Blocking Buffer for 2-4 hours at rt sealed.
Conditioned Media: • Cultured 2B7 cells in 96 well plate with 250 uL of media per well until confluent; • Prepared serial dilution of compounds in DMSO at 100× the final desired concentration; • Washed wells with 2B7 cells lx with 250 uL of media; • Diluted DMSO stocks 1:100 into media and mix; and • Added 250 μL of media containing compounds (1% DMSO) to wells with 2B7 cells for 5 hours at 37° C.
Elisa Sample Prep: • Diluted conditioned media 1:2 into blocking buffer; • NOTE: If assaying for A-Beta 1-40 or total A-Beta, then diluted above sample 1:10 with a 50/50 mixture of non-conditioned media containing 1% DMSO and blocking buffer.
Standard Curve Sample Prep: • Diluted appropriate A-Beta peptide stock (stored in 1% NH4OH) to 200 μg/mL in blocking buffer; • Prepared a 1:2 serial dilution from the 200 μg/mL sample (150 μL into 150 μL blocking buffer); and • Added equal volume of standard curve samples to non-conditioned media with 1% DMSO.
Overnight Sample Incubation: • Aspirated blocking buffer from blocked plate; • Added 100 μL of samples to wells of plate (samples will be 50% media with 1% DMSO and 50% blocking buffer; and • Incubated overnight at 4° C. sealed.
Addition of Detection Antibody: • Aspirated off samples, wash 2× with 250 μL blocking buffer; and • Added 100 μL detection antibody labeled with HRP at 0.25 ug/mL in blocking buffer for 4 hours at room temperature sealed.
Final Wash and Readout: • Aspirated wells, wash 5× with 250 μL of PBS-T (2 minutes each wash at 30 RPM); • Added 100 μL TMB for 20 minutes; • Added 100 μL of 1M H3PO4; and • Read at 450 nm.
Coating Buffer (100 mM NaHCO3 pH 8.2)
PBS-T (PBS with 0.05% Tween-20)
Blocking Buffer (1% BSA in PBS-T)
For orientation: In an ELISA, binding on a coated surface is turned into a signal by an enzyme label.
Broadly, the IC50 is the concentration at which inhibition is half-maximal. For the molecule `CCCN1CCO[C@@H](O[C@H]2CC[C@]34C[C@]35CC[C@]3(C)[C@@H]6[C@H](O[C@@H]([C@H](OC(C)=O)C(C)(C)O)C[C@H]6C)[C@H](O)[C@@]3(C)[C@@H]5CC[C@H]4C2(C)C)C1`, the half-inhibitory concentration (IC50) lay in the range of 1 to 10 µM. For `CC(=O)O[C@@H]([C@H]1C[C@@H](C)C2C(O1)[C@H](O)[C@@]1(C)[C@@H]3CC[C@H]4C(C)(C)[C@@H](OC(=O)CCC(=O)O)CC[C@@]45C[C@@]35CC[C@]21C)C(C)(C)O` (stereo partly shown), the IC50 lay in the range of 1 to 10 µM. Still for that read-out and setting: under `C[C@@H]1C[C@H]([C@H](O)C(C)(C)O)O[C@H]2[C@H]1[C@@]1(C)CC[C@@]34C[C@@]35CC[C@H](O[C@H]3CN(CC(N)=O)CCO3)C(C)(C)[C@@H]5CC[C@H]4[C@]1(C)[C@H]2O` stands greater than 10 µM; under `CC(=O)O[C@@H]([C@H]1C[C@@H](C)C2C(O1)[C@H](O)[C@@]1(C)[C@@H]3CC[C@H]4C(C)(C)[C@@H](OC5CN(CC(=O)N(C)C)CCO5)CC[C@@]45C[C@@]35CC[C@]21C)C(C)(C)O` (stereo partly shown) [drawing 947], no more than 1 µM. `CC(=O)O[C@@H]([C@H]1C[C@@H](C)[C@H]2[C@H](O1)[C@H](O)[C@@]1(C)[C@@H]3CC[C@H]4C(C)(C)[C@@H](OS(C)(=O)=O)CC[C@@]45C[C@@]35CC[C@]21C)C(C)(C)O`: the IC50 was greater than 10 µM.

As for `CC(=O)O[C@@H]([C@H]1C[C@@H](C)C2C(O1)C(N)[C@@]1(C)[C@@H]3CC[C@H]4C(C)(C)[C@@H](O[C@@H]5OC[C@@H](O)[C@H](O)[C@H]5O)CC[C@@]45C[C@@]35CC[C@]21C)C(C)(C)O` (stereo partly shown), the IC50 lay within 1 to 10 µM. Take `CC(=O)O[C@@H]([C@H]1C[C@@H](C)C2C(O1)[C@H](O)[C@@]1(C)[C@@H]3CC[C@H]4C(C)(C)[C@@H](OC(=O)c5cccnc5)CC[C@@]45C[C@@]35CC[C@]21C)C(C)(C)O` (stereo partly shown) [drawing 951]: the IC50 was no more than 1 µM. Still for that read-out and setting: under `CC(=O)O[C@@H]([C@H]1C[C@@H](C)C2C(O1)[C@H](O)[C@@]1(C)[C@@H]3CC[C@H]4C(C)(C)[C@H](NO)CC[C@@]45C[C@@]35CC[C@]21C)C(C)(C)O` (stereo partly shown) stands 1 to 10 µM. Regarding `C[C@@H]1C[C@H](C(=O)C(C)(C)O)OC2C1[C@@]1(C)CC[C@@]34C[C@@]35CC[C@H](O[C@@H]3OC[C@@H](O)[C@H](O)[C@H]3O)C(C)(C)[C@@H]5CC[C@H]4[C@]1(C)[C@H]2O` (stereo partly shown), the IC50 was greater than 10 µM.

As for `CC(C)C(O)[C@H]1C[C@@H](C)[C@H]2[C@H](O1)[C@H](O)[C@@]1(C)[C@@H]3CC[C@H]4C(C)(C)[C@@H](O)CC[C@@]45C[C@@]35CC[C@]21C` (stereo partly shown), the concentration for half-maximal inhibition (IC50) is greater than 10 µM.

The same assay, now with this note: Aβ-42, 10 umol/L; read-out: % Inhibition (range).
In general, inhibition refers to the percentage by which the read-out fell short of the control. On to `CC(=O)O[C@H]1CC[C@]23C[C@]24CC[C@]2(C)C5C(C[C@@]2(C)C4CCC3C1(C)C)OC(C(F)(F)F)=C[C@H]5C` (stereo partly shown), for which the inhibition at 10 µM is less than 25%.

On to `CC1O[C@@H]([C@H]2C[C@@H](C)C3C(O2)[C@H](O)[C@@]2(C)[C@@H]4CC[C@H]5C(C)(C)[C@@H](O)CC[C@@]56C[C@@]46CC[C@]32C)C(C)(C)O1` (stereo partly shown), for which the inhibition at 10 µM was less than 25%.

Regarding `C[C@@H]1C[C@H]([C@H](O)C(C)(C)O)OC2C(=O)[C@@]3(C)[C@@H]4CC[C@H]5C(C)(C)[C@@H](O)CC[C@@]56C[C@@]46CC[C@]3(C)C21` (stereo partly shown) [drawing 893], the inhibition at 10 µM was less than 25%.

The same assay, now with this note: Aβ-42, 20 umol/L.
Consider `CC(=O)N1CC(N2CCOC(OC3CCC45CC46CCC4(C)C7C(C)CC(C(O)C(C)(C)O)OC7C(O)C4(C)C6CCC5C3(C)C)C2)C1` (stereo not shown), for which the “% Inhibition (range)” value is reported as “F F (% inhibition of <25%)”. As for `CC1CC(C(O)C(C)(C)O)OC2C1C1(C)CCC34CC35CCC(OC3CN(C(=O)Cc6cc(F)cc(F)c6)CCO3)C(C)(C)C5CCC4C1(C)C2O` (stereo not shown), the “% Inhibition (range)” value is reported as “E E (% inhibition of 25-75%)”.

Staying with this assay, now noted: Aβ-42, 20 umol/L; read-out: % Inhibition (range).
Take `CC(=O)CCC1C[C@@H](C)C2C(O1)[C@H](O)[C@@]1(C)[C@@H]3CC[C@H]4C(C)(C)[C@@H](O)CC[C@@]45C[C@@]35CC[C@]21C` (stereo partly shown): the inhibition at 20 µM is less than 25%.

With `C[C@@H]1C[C@H]([C@H](O)C(C)(C)O)O[C@H]2[C@H]1[C@@]1(C)CC[C@@]34C[C@@]35CC[C@H](O[C@H]3CN(CC(N)=O)CCO3)C(C)(C)[C@@H]5CC[C@H]4[C@]1(C)[C@H]2O`, the inhibition at 20 µM is less than 25%. The same measure, in the same setting: under `CC(=O)O[C@@H]([C@H]1C[C@@H](C)C2C(O1)[C@H](OC(N)=O)[C@@]1(C)[C@@H]3CC[C@H]4C(C)(C)[C@@H](OC(N)=O)CC[C@@]45C[C@@]35CC[C@]21C)C(C)(C)O` (stereo partly shown) stands less than 25%; under `CC(C)C(O)[C@H]1C[C@@H](C)[C@H]2[C@H](O1)[C@H](O)[C@@]1(C)[C@@H]3CC[C@H]4C(C)(C)[C@@H](O)CC[C@@]45C[C@@]35CC[C@]21C` (stereo partly shown), less than 25%. As for `CC(=O)OCC1C[C@@H](C)C2C(O1)[C@H](O)[C@@]1(C)[C@@H]3CC[C@H]4C(C)(C)[C@@H](O)CC[C@@]45C[C@@]35CC[C@]21C` (stereo partly shown) [drawing 923], the inhibition at 20 µM is less than 25%.

The same assay, now with this note: Aβ-42, 100 umol/L.
Take `CC(=O)N1CC(N2CCOC(OC3CCC45CC46CCC4(C)C7C(C)CC(C(O)C(C)(C)O)OC7C(O)C4(C)C6CCC5C3(C)C)C2)C1` (stereo not shown): the “% Inhibition (range)” value is given as “F F (% inhibition of <25%)”.

Regarding `CC1CC(C(O)C(C)(C)O)OC2C1C1(C)CCC34CC35CCC(OC3CN(C(=O)Cc6cc(F)cc(F)c6)CCO3)C(C)(C)C5CCC4C1(C)C2O` (stereo not shown), the “% Inhibition (range)” value was “E E (% inhibition of 25-75%)”. `CC1CC(C(O)C(C)(C)O)OC2C1C1(C)CCC34CC35CCC(OC3CN(C(=O)c6cccnc6)CCO3)C(C)(C)C5CCC4C1(C)C2O` (stereo not shown): the “% Inhibition (range)” value is recorded as “F (% inhibition of <25%)”.

Still in this assay, the particulars now being: Aβ-42, 100 umol/L; read-out: % Inhibition (range).
For the molecule `CCC(=O)O[C@@H]([C@H]1C[C@@H](C)C2C(O1)C(N)[C@@]1(C)[C@@H]3CC[C@H]4C(C)(C)[C@@H](O)CC[C@@]45C[C@@]35CC[C@]21C)C(C)(C)O` (stereo partly shown), the inhibition at 100 µM fell in the range of 25 to 75%. Regarding `C[C@@H]1C[C@H](C=O)OC2C1[C@@]1(C)CC[C@@]34C[C@@]35CC[C@H](O)C(C)(C)[C@@H]5CC[C@H]4[C@]1(C)[C@H]2O` (stereo partly shown), the inhibition at 100 µM was less than 25%.

The same assay, now with this note: Aβ-42, 2B7 cells, 5 hours; read-out: IC50 range.
As for `CC(=O)N(CC1CC(C)C2C(O1)C(O)C1(C)C3CCC4C(C)(C)C(O)CCC45CC35CCC21C)C1COC1` (stereo not shown), the IC50 is greater than 10 µM.

For the molecule `CC(=O)N(Cc1cc(F)cc(F)c1)CC1CC(C)C2C(O1)C(O)C1(C)C3CCC4C(C)(C)C(OC(=O)C5CNC5)CCC45CC35CCC21C` (stereo not shown) [drawing 856], the IC50 was in the range of 1 to 10 µM.

In the case of `CC1CC(C(=O)N2CCOCC2)OC2C1C1(C)CCC34CC35CCC(O)C(C)(C)C5CCC4C1(C)C2O` (stereo not shown), the IC50 was greater than 10 µM. Turning to `CC1CC(C(OC(=O)N(C)C)C(C)(C)O)OC2C1C1(C)CCC34CC35CCC(O)C(C)(C)C5CCC4C1(C)C2O` (stereo not shown) [drawing 862], the IC50 was greater than 10 µM. In the case of `CC(=O)OC(C1CC(C)C2C(O1)C(OC(=O)C(F)(F)F)C1(C)C3CCC4C(C)(C)C(O)CCC45CC35CCC21C)C(C)(C)O` (stereo not shown), the IC50 was no more than 1 µM. With `CC(=O)N(Cc1ccccc1F)CC1CC(C)C2C(O1)C(O)C1(C)C3CCC4C(C)(C)C(O)CCC45CC35CCC21C` (stereo not shown), the concentration for half-maximal inhibition (IC50) was in the range of 1 to 10 µM. Turning to `CC1CC(C(OC(=O)C2CCC2)C(C)(C)O)OC2C1C1(C)CCC34CC35CCC(OC3CN(C6COC6)CCO3)C(C)(C)C5CCC4C1(C)C2O` (stereo not shown) [drawing 865], the IC50 was greater than 10 µM.

`CC1CC(C(=O)N2CCC2)OC2C1C1(C)CCC34CC35CCC(O)C(C)(C)C5CCC4C1(C)C2O` (stereo not shown): the 50% inhibitory concentration (IC50) is greater than 10 µM. The same measure, in the same setting: the same measure for `CC(=O)O[C@@H]([C@H]1C[C@@H](C)C2C(O1)[C@H](O)[C@@]1(C)[C@@H]3CC[C@H]4C(C)(C)[C@H](O)CC[C@@]45C[C@@]35CC[C@]21C)C(C)(C)O` (stereo partly shown) [drawing 944]: 1 to 10 µM.

With `CC(=O)N(Cc1cc(F)cc(F)c1)CC1CC(C)C2C(O1)C(O)C1(C)C3CCC4C(C)(C)C(OC(=O)Cc5cccnc5)CCC45CC35CCC21C` (stereo not shown), the concentration for half-maximal inhibition (IC50) is greater than 10 µM.

`CCC(=O)N(CC1CC(C)C2C(O1)C(O)C1(C)C3CCC4C(C)(C)C(O)CCC45CC35CCC21C)C(C)(C)C` (stereo not shown): the IC50 is greater than 10 µM.

`CC1CC(CO)OC2C1C1(C)CCC34CC35CCC(OC3OCC(O)C(O)C3O)C(C)(C)C5CCC4C1(C)C2O` (stereo not shown) [drawing 783]: the half-maximal inhibitory concentration (IC50) fell in the range of 1 to 10 µM.
